The values below come from US20090232735A1, “USE OF FRUCTOSE-BASED THERAPIES FOR THE TREATMENT OF CANCER” (CEDARS-SINAI MEDICAL CENTER, priority 2005, published 2009).

What all share (format): cell-based, human
The test system of experiment [1] is proliferating cell nuclear antigen (PCNA). The experiment is described as follows: PCNA Western blot in PANC-1 cells. Particulars: PANC-1, 5.5 mM sugar, 48 h, compared to 2 mM glucose. As for the experimental part:
FIG. 19 depicts PCNA expression in accordance with an embodiment of the present invention. PANC-1 cells were plated in 2 mM, and 5.5 mM glucose, or 5.5 mM fructose for 48 h, after which proliferating cell nuclear antigen (PCNA) levels were measured by Western blot analysis.
Additionally, protein extracts were harvested in RIPA buffer from the PANC-1 cells following 2 mM, 5.5 mM glucose-, and fructose-treatment for 48 h, analyzed by Western blot, and immunoblotted using a specific monoclonal antibody to proliferating cell nuclear antigen (PCNA).
In general terms: In western blotting, separated proteins are transferred to a membrane and probed.

A further experiment deals with transketolase (TKK). The experiment is described as follows: Transketolase activity (NADH oxidation) in PANC-1 lysates. The note with it: PANC-1, 5.5 mM fructose. As for the experimental part: FIG. 34 depicts quantitation of transketolase activity in pancreatic cancer PANC-1 cells following incubation in 2 mM glucose, 5.5 mM glucose, and 5.5 mM fructose for 24 h, 48 h, and 72 h respectively, in accordance with an embodiment of the present invention.
The inventors believe that fructose-treatment of pancreatic cancer cells led to an increase in TKK-driven nucleic acid synthesis, and thus fructose-treatment would result in an increase in either PANC-1 TKK expression and/or activity in comparison to equivalent glucose concentrations. Western blot analysis on protein lysates derived from fructose-, and glucose-treated PANC-1 cells were performed (5.5 mM fructose, and glucose for 24, and 48 h as per previous protocol) using a specific TKK antibody, and compared TKK expression in the fructose-, and glucose-treated PANC-1 cells. As depicted in FIG. 33, TKK expression at 24 h, and 48 h in protein lysates derived from 5.5 mM glucose-treated PANC-1 cells was increased in comparison to expression in 2 mM glucose-treated cells. However, highest TKK expression was observed after 5.5 mM fructose treatment at 24 h, and 48 h, and TKK levels were almost 2-fold higher in 5.5 mM fructose-treated, in comparison to 5.5 mM glucose-treated cells (p<0.01). […] After gentle mixing the absorbance of the mixture was measured at 10 min intervals for 2 h at 340 nm. Transketolase activity was then derived from the difference in absorbance at 10, and 80 minutes, and expressed as nmol/min/million cells. […] Pancreatic cancer proliferation rates were then measured using the MTS assay (FIG. 35).

The subject of experiment [2] is uric acid production in PANC-1 cells. The experiment is described as follows: Uricase activity / uric acid production in PANC-1 conditioned medium. Particulars: 5.5 mM fructose. As for the experimental part:
FIG. 32 depicts uric acid productionin PANC-1 cells in accordance with an embodiment of the present invention. Uric acid production in pancreatic cancer PANC-1 cells following incubation in 2 mM glucose, 5.5 mM glucose, and 5.5 mM fructose for 24 h, 48, 72, and 96 h respectively, p<0.01 5.5 mM fructose versus 5.5 mM glucose.
Based on the metabolomic studies which led the inventors to believe that fructose was metabolized in pancreatic cancer cells in large part to generate nucleic acids, the inventors devised a series of experiments to examine nucleic acid synthesis in the pancreatic cancer cells following either glucose or fructose-treatment. PANC-1 cells were incubated as before in 5.5 mM glucose or fructose for 24 h, following an ELISA-based fluorimetric assay (Amplex Red Uric acid uricase assay kit, Invitrogen) was employed to measure uricase activity in conditioned medium derived from the pancreatic cancer cells (Shi Y, Evans J E, Rock K L. Molecular identification of a danger signal that alerts the immune system to dying cells Nature 425, 516-21, 2003). Uricase activity correlates highly with uric acid production, a purine by-product of nucleic acid synthesis. […] Fluoresence was measured in a fluorescence microplate reader using excitation at 530 nm and detection at 590 nm, and the assay can detect levels as low as 100 nM uric acid.

In the case of `O=C(CO)[C@@H](O)[C@H](O)[C@H](O)CO` [fructose], in experiment [1], the PCNA expression result is “highest PCNA levels”. The “TKK activity higher than 5.5 mM glucose-treated cells” value with transketolase (TKK) (24 h) amounted to 2 fold; in the experiment on transketolase (TKK) (48 h) it was 3 fold; in the experiment on transketolase (TKK) (72 h) it was 1.7 fold. Besides, the figures for the “uricase activity higher than glucose-treated cells” value in experiment [2] (96 h) and in experiment [2] (120 h) were ~20% and ~50%, respectively.
